Holding throughout (format): cell-based
Data set [1] deals with human peripheral blood mononuclear cells. As to the kind of experiment: Induction of cytokine production in human peripheral blood mononuclear cells, Bio-Plex Pro cytokine assay (Example 7). The settings on record: 2 days culture, no stimulant (FIG. 9). As for the experimental part:
Human peripheral blood mononuclear cells were introduced into a human complete medium (i.e., RPMI-1640 supplemented with 10% heat-inactivated FBS, 100 U/ml penicillin, and 100 μg/ml streptomycin) to prepare a cell suspension (1×10^5 cells/ml). Compound (I), the EGFR tyrosine kinase inhibitor (i.e., AZD9291 or Erlotinib), or a cytokine-inducing positive control (i.e., Imiquimod) was added to the cell suspension. A control group to which the EGFR tyrosine kinase inhibitor and others were not added was also prepared (i.e., the non-treatment group). The culture solution was cultured in an incubator at 37° C. in the presence of 5% CO2 for 2 days. The culture supernatant was recovered, and various types of cytokines were inspected with the use of the Bio-Plex Pro human cytokine assay kit.

Data set [2] shares this test system. The data set can be described thus: Induction of IL-2 production of PHA-M-stimulated human peripheral blood mononuclear cells (Example 2). The settings on record: PHA-M 5 μg/ml, 3 days, ELISA (FIG. 3). As for the experimental part:
Human peripheral blood mononuclear cells were introduced into a human complete medium (i.e., RPMI-1640 supplemented with 10% heat-inactivated FBS, 100 U/ml penicillin, and 100 μg/ml streptomycin) to prepare a cell suspension (1×10^6 cells/ml). Phytohemagglutinin M (PHA-M) was added thereto to the final concentration of 5 μg/ml, and Compound (I) or an EGFR tyrosine kinase inhibitor (AZD9291) was further added thereto to each final concentration. This culture solution was seeded in a 96-well plate at 200 μl/well and then cultured in an incubator at 37° C. in the presence of 5% CO2 for 3 days. The culture supernatant was recovered, and the concentration of IL-2 therein was measured via ELISA using the anti-hIL-2 antibody.

For data set [3], the system named is mouse spleen cells. As to the kind of experiment: Excitation of T cell growth, CFSE flow cytometry of CD4- and CD8-positive spleen cells (Example 4). The settings on record: 0.1 μM, 3 days culture of stimulated spleen cells. The protocol:
The mouse spleen was extracted, grinded with glass slides with frosted areas, and then subjected to hemolysis, so as to obtain spleen cells. The spleen cells were suspended in 5 ml of a staining buffer (0.5% BSA, 2 mM EDTA, PBS(-)), and the cells were stained with 5 μM CFSE (5-carboxyfluorescein succinimidyl ester). Thereafter, the stained cells were washed with an ice-cooled complete medium (RPMI-1640). The CFSE-stained spleen cells were introduced into a complete medium (i.e., RPMI-1640 supplemented with 10% heat-inactivated FBS, 100 U/ml penicillin, 100 μg/ml streptomycin, and 55 μM 2-mercaptoethanol) to prepare a cell suspension (1×10^6 cells/ml), the anti-CD3 antibody and the anti-CD28 antibody were added at 1 μg/ml and 1 μg/ml, respectively, and Compound (I) adjusted to various concentrations or the EGFR tyrosine kinase inhibitor (i.e., AZD09291, Erlotinib, Co1686 (Rociletinib), Ibrutinib, Sunitinib, or Dasatinib) was added at 0.1 μM. […] These culture solutions were seeded in a 96-well plate at 200 μl/well and then cultured in an incubator at 37° C. in the presence of 5% CO2 for 3 days. The cells were recovered and stained with the anti-CD4 antibody and the anti-CD8 antibody. The amounts of CFSE in CD4- and CD8-positive cells were analyzed via flow cytometry.
Once CFSE is incorporated into a cell, the amount thereof is kept constant in the cell. Since the amount of CFSE per cell decreases by half upon cell division, according to flow cytometric analysis, the intensity of CFSE staining is attenuated and is shifted toward left (i.e., lower level) in the chart, as cell division proceeds. […] In the case of the samples to which other types of EGFR tyrosine kinase inhibitors had been added, in contrast, no such activity for enhancing the cell growth was observed.

This note sets out measurements from patent publication US20170202838A1, “IMMUNOMODULATOR” (TAIHO PHARMACEUTICAL CO., LTD., priority 2015, published 2017).

Regarding `C#Cc1cccc(Nc2ncnc3cc(OCCOC)c(OCCOC)cc23)c1` [Erlotinib], the “cytokine concentrations relative to the non-treatment group” value in data set [1] was “such induction was not observed”.

Regarding `C=CC(=O)Nc1cc(Nc2nccc(-c3cn(C)c4ccccc34)n2)c(OC)cc1N(C)CCN(C)C` [AZD9291, reference compound], the “concentration of IL-2 produced by human peripheral blood mononuclear cells in the culture supernatant” value in data set [2] is “substantially no activity for inducing IL-2 production”. Moreover, in data set [1], the “cytokine concentrations relative to the non-treatment group” value is listed as “such induction was not observed”. With `Cc1nc(Nc2ncc(C(=O)Nc3c(C)cccc3Cl)s2)cc(N2CCN(CCO)CC2)n1` [Dasatinib, reference compound], the cell death result in data set [3] is recorded as “cell death was induced”.
